Consider one molecule from patent publication US11185517B2, “Pharmaceutical composition for treatment or remission of chronic myelogenous leukemia” (Delta-Fly Pharma, Inc., priority 2016, dated 2021).

The structures appear in SMILES notation.

In this series the test system is patient with chronic myelogenous leukemia. The series can be described thus: Administration of Tasigna (nilotinib) to the patient with chronic myelogenous leukemia. Format: in vivo, human. The settings on record: CML patient. The method, then:
To a patient with chronic myelogenous leukemia, Tasigna (registered trademark) (nilotinib) was administered from Jan. 9, 2014.
The initially administered Tasigna (registered trademark) (nilotinib) had been developed as a therapeutic agent for the transitional stage of chronic myelogenous leukemia from the chronic stage to the acute stage.

In the case of `Cc1cn(-c2cc(NC(=O)c3ccc(C)c(Nc4nccc(-c5cccnc5)n4)c3)cc(C(F)(F)F)c2)cn1` [Tasigna, nilotinib], under “considered at the acute stage”, the therapeutic effect result was “no therapeutic effect”. In addition, the adverse effects entry (administration stopped after 5 days) was “strong adverse effects were observed”.
